Several values for one entry are separate records, joined by “and”; a condition that tells them apart may be missing. Identical values can stand only once.
Conditions: Liquid; for electrical conductivity / mass density: 101.33 kPa; for electrical conductivity: Alternating current cell with electrodes; for mass density: Vibrating tube method

CCCC[N+]1(C)CCCC1.O=S(=O)([N-]S(=O)(=O)C(F)(F)F)C(F)(F)F
Conditions	viscosity
273.15 K, 100 kPa, Falling or rolling sphere viscometry	319.28 mPa·s and 318.72 mPa·s and 320.44 mPa·s
273.15 K, 101.3 kPa, Concentric cylinders viscometry	322.4 mPa·s
273.15 K, 820 kPa, Falling or rolling sphere viscometry	318.29 mPa·s
273.15 K, 10850 kPa, Falling or rolling sphere viscometry	378.12 mPa·s
273.15 K, 20760 kPa, Falling or rolling sphere viscometry	441.79 mPa·s
273.15 K, 32190 kPa, Falling or rolling sphere viscometry	542.04 mPa·s
273.15 K, 40240 kPa, Falling or rolling sphere viscometry	621.51 mPa·s
273.15 K, 45000 kPa, Falling or rolling sphere viscometry	677.25 mPa·s
273.15 K, 50310 kPa, Falling or rolling sphere viscometry	729.34 mPa·s
273.15 K, 59200 kPa, Falling or rolling sphere viscometry	837.7 mPa·s
273.15 K, 60550 kPa, Falling or rolling sphere viscometry	855.99 mPa·s
273.15 K, 69280 kPa, Falling or rolling sphere viscometry	983.67 mPa·s
273.15 K, 70310 kPa, Falling or rolling sphere viscometry	1008.7 mPa·s
273.15 K, 80520 kPa, Falling or rolling sphere viscometry	1184.8 mPa·s
278.15 K, 100 kPa, Falling or rolling sphere viscometry	224.84 mPa·s and 224.85 mPa·s
278.15 K, 101.3 kPa, Concentric cylinders viscometry	230.9 mPa·s
283.15 K, 100 kPa, Falling or rolling sphere viscometry	167.09 mPa·s [middle of 4 runs]
283.15 K, 101.3 kPa, Concentric cylinders viscometry	170.1 mPa·s
283.15 K, 10140 kPa, Falling or rolling sphere viscometry	192.43 mPa·s
283.15 K, 19970 kPa, Falling or rolling sphere viscometry	222.97 mPa·s
283.15 K, 29990 kPa, Falling or rolling sphere viscometry	259.18 mPa·s
283.15 K, 40620 kPa, Falling or rolling sphere viscometry	303.3 mPa·s
283.15 K, 50520 kPa, Falling or rolling sphere viscometry	350.45 mPa·s
283.15 K, 59770 kPa, Falling or rolling sphere viscometry	398.94 mPa·s
283.15 K, 70190 kPa, Falling or rolling sphere viscometry	463.39 mPa·s
283.15 K, 78710 kPa, Falling or rolling sphere viscometry	517.26 mPa·s
283.15 K, 89720 kPa, Falling or rolling sphere viscometry	620.7 mPa·s
283.15 K, 89960 kPa, Falling or rolling sphere viscometry	604.22 mPa·s
283.15 K, 100390 kPa, Falling or rolling sphere viscometry	708.87 mPa·s and 702.53 mPa·s
288.15 K, 101.3 kPa, Concentric cylinders viscometry	128.4 mPa·s
293.15 K, 100 kPa, Falling or rolling sphere viscometry	99.81 mPa·s and 99.92 mPa·s
293.15 K, 101.3 kPa, Concentric cylinders viscometry	98.95 mPa·s and 99 mPa·s
298.15 K, 100 kPa, Falling or rolling sphere viscometry	76.63 mPa·s [middle of 5 runs]
298.15 K, 101.3 kPa, Concentric cylinders viscometry	77.83 mPa·s
298.15 K, 860 kPa, Falling or rolling sphere viscometry	77.22 mPa·s
298.15 K, 10370 kPa, Falling or rolling sphere viscometry	87.96 mPa·s
298.15 K, 20760 kPa, Falling or rolling sphere viscometry	100.93 mPa·s
298.15 K, 30700 kPa, Falling or rolling sphere viscometry	114.96 mPa·s
298.15 K, 40660 kPa, Falling or rolling sphere viscometry	130.58 mPa·s
298.15 K, 50630 kPa, Falling or rolling sphere viscometry	148.26 mPa·s
298.15 K, 60600 kPa, Falling or rolling sphere viscometry	167.95 mPa·s
298.15 K, 70390 kPa, Falling or rolling sphere viscometry	189.46 mPa·s
298.15 K, 80180 kPa, Falling or rolling sphere viscometry	213.75 mPa·s
298.15 K, 90600 kPa, Falling or rolling sphere viscometry	242.18 mPa·s
298.15 K, 100230 kPa, Falling or rolling sphere viscometry	271.62 mPa·s
303.15 K, 100 kPa, Falling or rolling sphere viscometry	62.82 mPa·s and 62.63 mPa·s
303.15 K, 101.3 kPa, Concentric cylinders viscometry	62.26 mPa·s
313.15 K, 100 kPa, Falling or rolling sphere viscometry	41.27 mPa·s and 41.24 mPa·s
313.15 K, 101.3 kPa, Concentric cylinders viscometry	41.72 mPa·s
323.15 K, 100 kPa, Falling or rolling sphere viscometry	29.04 mPa·s [middle of 5 runs]
323.15 K, 101.3 kPa, Concentric cylinders viscometry	29.42 mPa·s
323.15 K, 10520 kPa, Falling or rolling sphere viscometry	32.31 mPa·s
323.15 K, 20600 kPa, Falling or rolling sphere viscometry	36.21 mPa·s
323.15 K, 29970 kPa, Falling or rolling sphere viscometry	40.16 mPa·s
323.15 K, 39910 kPa, Falling or rolling sphere viscometry	44.72 mPa·s
323.15 K, 50590 kPa, Falling or rolling sphere viscometry	50.06 mPa·s
323.15 K, 60550 kPa, Falling or rolling sphere viscometry	55.73 mPa·s
323.15 K, 70490 kPa, Falling or rolling sphere viscometry	61.77 mPa·s
323.15 K, 80450 kPa, Falling or rolling sphere viscometry	68.24 mPa·s
323.15 K, 90470 kPa, Falling or rolling sphere viscometry	75.36 mPa·s
323.15 K, 100400 kPa, Falling or rolling sphere viscometry	82.99 mPa·s
333.15 K, 100 kPa, Falling or rolling sphere viscometry	21.31 mPa·s and 21.3 mPa·s
333.15 K, 101.3 kPa, Concentric cylinders viscometry	21.64 mPa·s
343.15 K, 100 kPa, Falling or rolling sphere viscometry	16.14 mPa·s and 16.13 mPa·s
343.15 K, 101.3 kPa, Concentric cylinders viscometry	16.46 mPa·s
348.15 K, 100 kPa, Falling or rolling sphere viscometry	14.07 mPa·s and 14.06 mPa·s
348.15 K, 10850 kPa, Falling or rolling sphere viscometry	15.68 mPa·s
348.15 K, 11990 kPa, Falling or rolling sphere viscometry	15.82 mPa·s
348.15 K, 21760 kPa, Falling or rolling sphere viscometry	17.54 mPa·s
348.15 K, 29210 kPa, Falling or rolling sphere viscometry	18.8 mPa·s
348.15 K, 38020 kPa, Falling or rolling sphere viscometry	20.38 mPa·s
348.15 K, 49600 kPa, Falling or rolling sphere viscometry	22.9 mPa·s
348.15 K, 64630 kPa, Falling or rolling sphere viscometry	26.45 mPa·s
348.15 K, 73060 kPa, Falling or rolling sphere viscometry	28.44 mPa·s
348.15 K, 85040 kPa, Falling or rolling sphere viscometry	31.53 mPa·s
348.15 K, 102920 kPa, Falling or rolling sphere viscometry	36.8 mPa·s
353.15 K, 100 kPa, Falling or rolling sphere viscometry	12.73 mPa·s and 12.67 mPa·s
353.15 K, 101.3 kPa, Concentric cylinders viscometry	12.91 mPa·s
363.15 K, 101.3 kPa, Concentric cylinders viscometry	10.35 mPa·s

Conditions	electrical conductivity [S/m]	mass density
273.15 K	0.0741	1416.89 kg/m3 and 1416.94 kg/m3 and 1416.7 kg/m3
278.15 K	0.101	1412.1 kg/m3
283.15 K	0.134	1407.76 kg/m3 and 1407.82 kg/m3 and 1407.6 kg/m3
288.15 K	0.174	1403.39 kg/m3 and 1403.2 kg/m3
293.14 K	0.221	–
293.15 K	–	1398.92 kg/m3 [middle of 4 runs]
298.14 K	0.276	–
298.15 K	0.275	1394.51 kg/m3 and 1394.4 kg/m3
303.15 K	0.338	1390.1 kg/m3 and 1390.17 kg/m3 and 1390 kg/m3
313.15 K	0.486	1381.31 kg/m3 and 1381.38 kg/m3 and 1381.2 kg/m3
323.14 K	0.667	–
323.15 K	–	1372.58 kg/m3 and 1372.67 kg/m3 and 1372.5 kg/m3
333.15 K	0.879	1363.89 kg/m3 and 1363.97 kg/m3 and 1363.9 kg/m3
343.14 K	1.12	–
343.15 K	–	1355.26 kg/m3 and 1355.36 kg/m3 and 1355.3 kg/m3
353.15 K	1.39	1346.69 kg/m3 and 1346.78 kg/m3 and 1346.8 kg/m3
363.15 K	–	1338.16 kg/m3 and 1338.25 kg/m3 and 1338.4 kg/m3
